In patent US10882856B2 (BeiGene, Ltd., priority 2017, dated 2021):
Where two headings read alike, the source gives them in different places.

What was measured:
[1] = target: T1, cellular IDO1 in HeLa cells (Homo sapiens, UniProt P14902); assay: HeLa cell-based IDO1 Kyn (kynurenine) production assay; conditions: IDO1 induced by IFN-γ, 48 hours, read-out: cell-based EC50 value (IDO1 expressed Hela cells)
T1 construct: endogenous in cells; host or cells: HeLa (ATCC), induced with human recombinant IFN-γ
Experimental: HeLa Cell-Based IDO1 Kyn (Kynurenine) Production Assay:
The inhibitory activity of IDO1 inhibitors is determined by using a colorimetric reaction to measure Kyn generated from L-Trp (L-Tryptophon) oxidation by cellular IDO1 in HeLa cells after induction of IDO1 expression by IFN-γ.
Hela cells were obtained from the American Type Culture Collection and recovered in 10% FBS-containing phenol red-free DMEM medium. Cells were plated onto a 96-well plate (100 μl/well) at 8000 cells per well and kept at 37° C. in a humidified incubator supplied with 5% CO2 4 hours later, Human recombinant IFN-γ (8901SC, CST) was added to cells (final concentration 100 ng/mL) to stimulate endogenous IDO11. Compounds at different concentrations diluted in dimethylsulfoxide (DMSO) were added simultaneously with IFN-γ and 0.4 mM L-Trp. Cells were kept at 37° C. in a humidified incubator supplied with 5% CO2. After 48 hours of incubation, 100 μl supernatant from each well was removed to a new plate. The protein in the medium was precipitated with the addition of 8 μl 6N trichloroacetic acid. The plate was incubated at 60° C. for 30 minutes and then centrifugation at 2500 rpm for 10 minutes to remove sediments. […] The absorbance at 480 nm wavelength derived from Kyn was measured using a PHERAstar FS plate reader (BMG LABTECH). […]

[2] = target: T2, IDO1 (Homo sapiens, UniProt P14902); assay: IDO1 enzymatic assay; type: biochemical; set-up: His tag (N); made in house; host or cells: E. coli; conditions: read-out: Enzyme IC50 IDO1
In short: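 Recombinant N-terminally His-tagged IDO1 purified from E. coli (50 nM) was incubated with compound or DMSO and 1.3 mM D-tryptophan, 5 mM L-ascorbic acid, methylene blue and 0.4 mg/mL catalase. The buffer was 50 mM potassium phosphate pH 7.5 with 0.1% BSA, at 24 °C for 1.5 hours. N'-formylkynurenine formation was then read continuously at 321 nm for 1 hour, and activity was taken as the slope. IC50 was calculated from remaining enzyme activity across increasing compound concentrations.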

[3] = target: T3, TDO2 in 293-TDO2 cells (Homo sapiens, UniProt P48775); assay: 293-TDO2 cell-based TDO2 Kyn (kynurenine) production assay
T3 construct: expressed in transfected cells; host or cells: HEK293 (ATCC), stably transfected
In short: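 HEK293 cells stably transfected to express tryptophan 2,3-dioxygenase were seeded at 10000 per well in 96-well plates in phenol red-free DMEM with 10% FBS. After 4 hours, DMSO-diluted compound dilutions were added, and cells were kept 48 hours at 37 °C, 5% CO2. Supernatant was deproteinised with trichloroacetic acid, and kynurenine was measured at 480 nm after adding 2% 4-(dimethylamino)benzaldehyde. Potency came from four-parameter logistic fits in XLfit.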

[4] = target: T2, IDO1; assay: IDO1 enzymatic assay; type: biochemical; set-up: His tag (N); made in house; host or cells: E. coli; conditions: recombinant IDO1, 1.3 mM D-tryptophan
Experimental: Recombinant IDO1 was overexpressed and purified from E. coli cells with an N-terminal His tag. IDO1 enzymatic assay was carried out using a methodology similar to described in the literature (J. Biol. Chem. (1980), 255, 1339-1345.). The reaction mixture contains 50 nM IDO1, 1.3 mM D-tryptophan, 5 mM L-ascorbic acid, […] methylene Blue, 0.4 mg/mL catalase and compound (or DMSO) in a buffer containing 50 mM potassium phosphate pH 7.5 and 0.1% BSA. After incubation at 24′C for 1.5 hours, absorbance of the reaction mixture was continuously read at 321 nm to monitor the formation of N′-formylkynurenine by a FULOstar OMEGA plate reader (BMG LABTECH) for 1 hour. The enzymatic activity was determined by measuring the slope of the linear absorbance increase as a function of time. The IC50s are calculated based on remaining enzyme activity in the presence of increasing concentrations of compounds.

[5] = target: T4, TDO (Homo sapiens, UniProt P48775); assay: TDO enzymatic assay; type: biochemical; conditions: read-out: Enzyme IC50 TDO
T4 construct: His tag (C); made in house; host or cells: E. coli
In short: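 Recombinant C-terminally His-tagged TDO purified from E. coli (100 nM) was tested with 0.5 mM L-tryptophan (Km concentration). Otherwise the IDO1 enzymatic set-up was used: ascorbic acid, methylene blue, catalase, and potassium phosphate pH 7.5 with BSA, incubated 1.5 hours. N'-formylkynurenine absorbance was read continuously at 321 nm, and activity was taken as the slope. IC50 was calculated from remaining enzyme activity across increasing compound concentrations.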

[6] = target: T2, IDO1; assay: Hela cell-based IDO1 assay; conditions: Hela cells
In short: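 HeLa cells were plated at 8000 per well in 96-well plates containing phenol red-free DMEM with 10% FBS, and after 4 hours compound dilutions made in DMSO were added together with IFN-γ (final 100 ng/mL) and 0.4 mM L-Trp before 48 hours at 37 °C, 5% CO2. Supernatants were deproteinised with trichloroacetic acid, mixed with 2% 4-(dimethylamino)benzaldehyde and read at 480 nm for kynurenine. Four-parameter logistic fits were run in XLfit. Potency was derived from these fits.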

[7] = target: T5, cellular TDO2 in HEK293-TDO2 cells (Homo sapiens, UniProt P48775); assay: 293-TDO2 cell-based assay (Kyn colorimetric); conditions: 48 hours of incubation
T5 construct: expressed in transfected cells; host or cells: HEK293 (ATCC), stably transfected
In short: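 HEK293 cells stably expressing TDO2 (10000/well, phenol red-free DMEM, 10% FBS) were dosed 4 h after plating and incubated 48 h at 37° C. Supernatant Kyn was measured after TCA precipitation by 4-(dimethylamino)benzaldehyde colour at 480 nm. IC50 came from four-parameter logistic fits.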

T2 sequence (P14902 whole entry): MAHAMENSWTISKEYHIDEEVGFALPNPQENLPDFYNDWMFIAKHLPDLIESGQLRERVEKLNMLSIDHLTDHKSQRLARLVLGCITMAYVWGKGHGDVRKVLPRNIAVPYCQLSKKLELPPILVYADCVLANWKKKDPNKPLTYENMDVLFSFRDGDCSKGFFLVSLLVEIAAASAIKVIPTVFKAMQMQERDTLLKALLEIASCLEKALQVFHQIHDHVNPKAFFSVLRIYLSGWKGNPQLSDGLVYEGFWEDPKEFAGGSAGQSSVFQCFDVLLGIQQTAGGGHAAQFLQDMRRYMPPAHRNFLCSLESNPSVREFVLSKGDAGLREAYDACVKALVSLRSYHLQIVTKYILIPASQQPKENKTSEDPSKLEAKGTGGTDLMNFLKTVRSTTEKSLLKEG
T4 sequence (P48775 whole entry): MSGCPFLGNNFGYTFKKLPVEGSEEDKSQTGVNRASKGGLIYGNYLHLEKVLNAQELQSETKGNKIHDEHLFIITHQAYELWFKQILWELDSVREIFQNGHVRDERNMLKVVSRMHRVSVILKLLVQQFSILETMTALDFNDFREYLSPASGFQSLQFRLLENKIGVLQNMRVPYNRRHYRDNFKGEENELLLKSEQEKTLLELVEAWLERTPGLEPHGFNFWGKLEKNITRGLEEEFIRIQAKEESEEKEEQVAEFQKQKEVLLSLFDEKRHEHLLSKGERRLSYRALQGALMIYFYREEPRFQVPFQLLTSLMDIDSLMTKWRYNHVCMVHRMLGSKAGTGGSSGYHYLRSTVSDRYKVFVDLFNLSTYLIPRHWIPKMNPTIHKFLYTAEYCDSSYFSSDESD
T5 sequence (P48775 whole entry): as above
T1 sequence (P14902 whole entry): as the sequence (P14902 whole entry) above
T3 sequence (P48775 whole entry): as the sequence (P48775 whole entry) above

EC50 [1] [nM] | IC50 [2] [nM] | EC50 [3] [nM] | IC50 [4] [nM] | IC50 [5] [nM] | EC50 [6] [nM] | EC50 [7] [nM] | SMILES
> 10000 | 67 | > 10000 | 67 | – | – | – | OC(c1c(C2CC2)ccc2cncn12)[C@H]1CC[C@@H](c2ccc(Cl)cc2)CC1 (single isomer, unassigned) [Example D103d]
– | 15 | – | – | 6100 | 12 | > 10000 | O[C@H](c1c(C2CC2)ccc2cncn12)[C@H]1CC[C@H](c2cccc3ncccc32)CC1 (single isomer, unassigned) [Example D141a]
– | 36 | – | – | 16000 | 471 | > 10000 | O[C@H](c1c(C2CC2)ccn2cncc12)[C@H]1CC[C@H](c2ccc(Cl)cc2)CC1 (single isomer, unassigned) [Example C102a]
– | 20 | – | – | 5200 | 141 | > 10000 | N#Cc1ccc([C@H]2CC[C@H](C(O)c3c(C4CC4)ccn4cncc34)CC2)cc1 (single isomer, unassigned) [Example C106a]
– | 20 | – | – | 12000 | 31 | > 10000 | O[C@H](c1c(C2CC2)ccc2cncn12)[C@H]1CC[C@H](c2cccc(F)c2)CC1 (single isomer, unassigned) [Example D156a]
– | 15 | – | – | 6100 | 135 | > 10000 | OC(c1c(C2CC2)ccc2cncn12)[C@H]1CC[C@H](c2ccc3ccsc3c2)CC1 (single isomer, unassigned) [Example D134a]
– | 41 | – | – | 6100 | 915 | > 10000 | CC(=O)c1ccc([C@H]2CC[C@H]([C@H](O)c3c(C4CC4)ccn4cncc34)CC2)cc1 [Example C125, 1-(4-((1 S,4r)-4-((S)-(7-cyclopropylimidazo[1,5-a]pyridin-8-yl)(hydroxy)methyl)cyclohexyl)phenyl)ethan-1-one]
– | 28 | – | – | 5100 | 112 | > 10000 | O[C@H](c1c(C2CC2)ccn2cncc12)[C@H]1CC[C@H](c2ccccc2F)CC1 (single isomer, unassigned) [Example C108a]
– | 17 | – | – | 1400 | 777 | > 10000 | O[C@H](c1cc(Cl)cc2cncn12)[C@H]1CC[C@H](c2cccc3ccccc32)CC1 (single isomer, unassigned) [Example E103a]
– | 17 | – | – | 1700 | 572 | > 10000 | O[C@@H](c1c(C2CC2)ccc2cncn12)[C@H]1CC[C@@H](c2ccc(OC3CCOCC3)cc2)CC1 [Example D114a, (R)-(6-cyclopropylimidazo[1,5-a]pyridin-5-yl)((1 s,4S)-4-(4-((tetrahydro-2H-pyran-4-yl)oxy)phenyl)cyclohexyl)methanol]
– | 63 | – | – | 6200 | 147 | > 10000 | O[C@H](c1c(C2CC2)ccn2cncc12)[C@H]1CC[C@H](c2ccc(OC3CCCC3)cc2)CC1 (single isomer, unassigned) [Example C118a]
– | 48 | – | – | 9100 | 1140 | > 10000 | O[C@H](c1c(C2CC2)ccn2cncc12)[C@H]1CC[C@H](c2ccc(OC(F)(F)F)cc2)CC1 (single isomer, unassigned) [Example C105a]
– | 16 | – | – | 6400 | 186 | > 10000 | N#Cc1ccc([C@H]2CC[C@H]([C@H](O)c3c(C4CC4)ccc4cncn34)CC2)cc1 (single isomer, unassigned) [Example D110a]
– | 11 | – | – | 4000 | 21 | > 10000 | Oc1ccc([C@H]2CC[C@H](C(O)c3c(C4CC4)ccc4cncn34)CC2)cc1 (single isomer, unassigned) [Example D106a]
130 | 22 | > 10000 | 22 | 8100 | 131 | > 10000 | OC(c1c(C2CC2)ccc2cncn12)[C@H]1CC[C@H](c2ccc(Cl)cc2)CC1 (single isomer, unassigned) [Example D103c]
– | 3500 | – | – | 1400 | > 10000 | > 10000 | O[C@@H](c1cc(Cl)cc2cncn12)[C@H]1CC[C@H](c2ccc3ccccc3c2)CC1 (single isomer, unassigned) [Example E104b]
– | 40 | – | – | 5100 | 183 | > 10000 | Cc1ccccc1[C@H]1CC[C@H]([C@H](O)c2c(C3CC3)ccn3cncc23)CC1 (single isomer, unassigned) [Example C112a]
– | 20 | – | – | 11000 | 38 | > 10000 | O[C@H](c1c(C2CC2)ccc2cncn12)[C@H]1CC[C@H](c2ccnc3ccccc32)CC1 (single isomer, unassigned) [Example D140a]
